The source of these data is ChEMBL document CHEMBL1201862, “PubChem BioAssay data set” (2004).

Test systems include HCT-116; NCI-H23; NCI-H460; SK-MEL-5; SW-620; TK-10; RPMI-8226; SK-MEL-28; IGROV-1; NCI-H522; HL-60; DU-145; NCI/ADR-RES; PC-3; Hs-578T; M14; OVCAR-8; HCC 2998; SNB-78; HOP-92.
Common to all, as to test: NCI tumour cell line growth inhibition, 48 h

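Values below derive from 48-hour exposures of cells grown in 96-well plates, with endpoints linearly interpolated between the two concentrations bracketing the appropriate inhibition level. GI50 marks 50% less growth.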 Activity calls are given as the source filed them. No stated cut-off is given here; in the data, active = GI50 up to about 1.1 µM and inactive = higher. A value given as a limit tells only on which side of the number the result lay.

On to `CCCCCCCCCCCCCCCCCCNC(=O)OCC(CNS(=O)(=O)CCC[n+]1cccc2ccccc21)COC` (stereo unspecified), for which the GI50 was 1.35 µM (inactive) in the assay with HCT-116; 1.16 µM (inactive) in the assay on NCI-H23; 1.34 µM (inactive) in the assay on NCI-H460; 2.06 µM (inactive) in the assay on SK-MEL-5; 2.16 µM (inactive) in the assay on SW-620; 3.4 µM (inactive) with TK-10. In addition, the GI50 with RPMI-8226 is 1.37 µM (inactive); with SK-MEL-28, 4.74 µM (inactive); with IGROV-1 it was 1.17 µM (inactive); in the assay with NCI-H522, 1.02 µM (active); with HL-60, 1.23 µM (inactive); in the assay on DU-145 it was 12.4 µM (inactive). Further, the GI50 was 18.5 µM (inactive) in the assay with NCI/ADR-RES; 1.76 µM (inactive) in the assay with PC-3; 2 µM (inactive) in the assay with Hs-578T; 3.7 µM (inactive) with M14; 2.07 µM (inactive) with OVCAR-8; 1.34 µM (inactive) in the assay on HCC 2998. Besides, the GI50 in the assay with SNB-78 was 1.23 µM (inactive); with HOP-92, 0.838 µM (active).
For `C=CC1=CC(C)C[C@]1(O)C(=O)OC` (stereo partly specified), the GI50 in the assay with HCT-116 is < 0.01 µM (active); in the assay with NCI-H23, < 0.01 µM (active); in the assay with NCI-H460, < 0.01 µM (active); in the assay on SK-MEL-5, > 100 µM (inactive); in the assay with SW-620, 38.5 µM (inactive); in the assay with TK-10, < 0.01 µM (active). For the same compound, the GI50 was < 0.01 µM (active) with RPMI-8226; < 0.01 µM (active) in the assay on SK-MEL-28; < 0.01 µM (active) in the assay with IGROV-1; > 100 µM (inactive) in the assay with NCI-H522; < 0.01 µM (active) in the assay with HL-60; < 0.01 µM (active) in the assay on M14. In addition, the GI50 in the assay on OVCAR-8 was < 0.01 µM (active); with HCC 2998, < 0.01 µM (active); in the assay on SNB-78, > 100 µM (inactive); in the assay on HOP-92, < 0.01 µM (active).
